Measured values published in US5128338A, “Imidazo [1,2-c] quinazoline compounds” (priority 1990, dated 1992).
Read-outs that look alike come from different tables or passages of the source.

Tests used:
porcine coronary = experiment: Porcine coronary relaxation (PGF2α-precontracted coronary segments); set-up: species or system pig (Yucatan mini pig); conditions: for EC20 / EC50: Sus scrofa; for EC20: read-out: DE20, effect on coronary tension induced by PGF2α; for EC50: read-out: DE50, effect on coronary tension induced by PGF2α; for level of relaxation obtained as well as the 50% effect value (K0.5) obtained by displacement: overall judgement of relaxation and K0.5
Experimental: All the products studied were dissolved in DMSO at a concentration of 10^-2 M, then diluted to the desired concentrations in the experimental media. All of the ED20, ED50 and K0.5 values were corrected for the values obtained with DMSO under the same conditions of dilution.
Coronaries were taken on the heart of pigs (Yucatan mini pig), anesthetized under stresnil and pentobarbital. Proximal segments of the coronary were placed in an organ tank filled with Ringer solution at 37° C. The segments were tightened progressively to a base tension of around 6 g and contracted by the addition of PGF2α at a concentration of 4.10^-6 M. The potential of the products of the present invention to relax the coronary artery were then tested.
All of the compounds were tested for their capacity to relax the porcine coronary precontracted by PGF2α.

[1] = biological target: T1, peripheral receptors for benzodiazepines ([^3 H]-PK 11195) (Rattus norvegicus, UniProt P16257); experiment: Displacement of [3H]-PK 11195, rat heart microsomal fractions; assay type: binding; conditions: corrected for DMSO, read-out: K0.5, peripheral receptors, [^3 H]--PK 11195;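 also: radioligand binding with bound label split from free by vacuum filtration, then quantified through liquid scintillation counting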
T1 construct: on microsomal fractions from rat heart; from tissue; host or cells: rat heart, microsomal fractions

[2] = biological target: T2, peripheral receptors for benzodiazepines ([^3 H]-R05-4864) (Rattus norvegicus, UniProt P16257); experiment: Displacement of [3H]-R05-4864, rat heart microsomal fractions; assay type: binding; conditions: corrected for DMSO, read-out: K0.5, peripheral receptors, [^3 H]--RO 54864;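 also: Read-out is filter-retained bound radioligand, separated from free ligand by vacuum filtration over GF/C and counted by liquid scintillation, with compounds first dissolved in DMSO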
T2 construct: on microsomal fractions from rat heart; from tissue; host or cells: rat heart, microsomal fractions

[3] = biological target: central receptors for benzodiazepines; experiment: Displacement of [3H]-RO 151788, rat central nervous system microsomal fractions; assay type: binding; conditions: corrected for DMSO, read-out: K0.5, central receptors, [^3 H]--RO 151788
[4] = porcine coronary segments, 37° C., PGF2α 4.10^-6 M, corrected for DMSO
[5] = porcine coronary segments, PGF2α 4.10^-6 M

SMILES | EC20 (porcine coronary) [µM] | IC50 [1] [µM] | EC20 (porcine coronary; [4]) [µM] | EC50 (porcine coronary; [4]) [µM] | IC50 [2] [µM] | Effect on coronary tension induced by PGF2α (in words) (porcine coronary; [5]) | IC50 [3] [µM] | level of relaxation obtained as well as the 50% effect value (K0.5) obtained by displacement (porcine coronary) | EC50 (porcine coronary) [µM]
CN1C(=O)CN=C(c2ccccc2)c2cc(Cl)ccc21 [Diazepam, diazepam, reference compound] | 16.4 |  |  |  |  |  |  |  | 
OCCN(CCO)c1nc(N2CCCCC2)c2nc(N(CCO)CCO)nc(N3CCCCC3)c2n1 [Dipyridamole, dipyridamole, reference compound] |  | 0.3 | 1.61 | 0.446 | 0.2 |  |  |  | 
CCOC(=O)COc1ccc2c(=O)cc(-c3ccccc3)oc2c1 [Efloxate, efloxate, reference compound] |  | 20 | 35.8 | 3.94 | 200 |  |  |  | 
CCOC(=O)c1cn2c(=O)[nH]c3ccccc3c2n1 [Example 1, 2-Ethoxycarbonyl-5-oxo-5,6-dihydroimidazo[1,2-c]quinazoline] |  | > 100 |  |  | 61 | No effect | 1 |  | 
CCOC(=O)c1cn2c(=O)n(CC(=O)N(CC)CC)c3ccccc3c2n1 [Example 2, 2-Ethoxycarbonyl-6-N,N-diethylaminocarbonylmethyl-5-oxo-5,6-dihydroimidazo[1,2-c]quinazoline] |  | 0.55 |  |  |  |  |  |  | 
O=c1[nH]c2ccccc2c2nc(-c3ccccc3)cn12 [Example 3, 2-Phenyl-5-oxo-5,6-dihydroimidazo[1,2-c]quinazoline] |  | 4.5 | 35.4 | 7.48 | > 100 |  |  |  | 
CCN(CC)C(=O)Cn1c(=O)n2cc(C(N)=O)nc2c2ccccc21 [Example 4, 2-Aminocarbonyl-6-N,N-diethylaminocarbonylmethyl-5-oxo-5,6-dihydroimidazo[1,2-c]quinazoline] |  | 8 | 57.4 | 9.66 | 6 |  | > 100 |  | 
CCN(CC)C(=O)Cn1c(=O)n2c(CN(C)C)c(-c3ccccc3)nc2c2ccccc21 [Example 5, 2-Phenyl-3-dimethylaminomethyl-6-N,N-diethylaminocarbonylmethyl-5-oxo-5,6-dihydroimidazo[1,2-c]quinazoline] |  | 2.2 | 144 | 18.9 | 4.5 |  |  |  | 
CCN(CC)C(=O)Cn1c(=O)n2cc(C(=O)c3ccccc3)nc2c2ccccc21 [Example 6, 2-Benzoyl-6-N,N-diethylaminocarbonylmethyl-5-oxo-5,6-dihydroimidazo[1,2-c]quinazoline] |  | 0.22 |  |  | 0.2 |  |  |  | 
CCOC(=O)c1cn2c(=O)n(C)c3ccccc3c2n1 [Example 8, 2-ethoxycarbonyl-6-methyl-5-oxo-5,6-dihydroimidazo[1,2-c]quinazoline] |  | > 100 |  |  | 30 | No effect |  |  | 
O=C(c1ccccc1)c1cn2c(=O)[nH]c3ccccc3c2n1 [Example 9, 2-benzoyl-5-oxo-5,6-dihydroimidazo[1,2-c]quinazoline] |  | 28 |  |  | 13 | No effect |  |  | 
CCOC(=O)c1cn2c(=O)n(Cc3ccccc3)c3ccccc3c2n1 [Example 10, 2-ethoxycarbonyl-6-benzyl-5-oxo-5,6-dihydroimidazo[1,2-c]quinazoline] |  | ~100 | 3.33 | 1.04 | 8.8 |  |  | particularly favorable | 
CCN(CC)C(=O)Cn1c(=O)n2cc(-c3ccccc3)nc2c2ccccc21 [Example 11, 2-phenyl-6-N,N-diethylaminocarbonylmethyl-5-oxo-5,6-dihydroimidazo[1,2-c]quinazoline] |  |  | 6.93 | 1.13 |  |  | > 100 | particularly favorable | 
CN1CCN(C(=O)Cn2c(=O)n3cc(-c4ccccc4)nc3c3ccccc32)CC1 [Example 12, 2-phenyl-6-N-methylpiperazinocarbonylmethyl-5-oxo-5,6-dihydroimidazo[1,2-c]quinazoline] |  | 80 | 587 | 31.9 | 40 |  |  |  | 
CCOC(=O)Cn1c(=O)n2cc(-c3ccccc3)nc2c2ccccc21 [Example 13, 2-phenyl-6-ethoxycarbonylmethyl-5-oxo-5,6-dihydroimidazo[1,2-c]quinazoline] |  | 100 | 84.2 | 7.15 | > 100 |  | > 100 |  | 
CC(C)NC(=O)Cn1c(=O)n2cc(-c3ccccc3)nc2c2ccccc21 [Example 14, 2-phenyl-6-N-isopropylaminocarbonylmethyl-5-oxo-5,6-dihydroimidazo[1,2-c]quinazoline] |  | > 100 | 386 | 13.8 | > 100 |  | > 100 |  | 
CCN(CC)C(=O)Cn1c(=O)n2cc(-c3ccc(Cl)cc3)nc2c2ccccc21 [Example 15, 2-(p-chlorophenyl)-6-N,N-diethylaminocarbonylmethyl-5-oxo-5,6-dihydroimidazo[1,2-c]quinazoline] |  | 1.5 | 45.4 | 6.12 | ~100 |  | > 100 |  | 
O=C(Cn1c(=O)n2cc(-c3ccccc3)nc2c2ccccc21)N1CCOCC1 [Example 16, 2-phenyl-6-morpholinocarbonylmethyl-5-oxo-5,6-dihydroimidazo[1,2-c]quinazoline] |  | > 100 | 12.3 | 3.49 | > 100 |  | > 100 |  | 
CCN(CC)C(=O)Cn1c(=O)n2cc(-c3ccc(OC)cc3)nc2c2ccccc21 [Example 17, 2-(p-methoxyphenyl)-6-N,N-diethylaminocarbonylmethyl-5-oxo-5,6-dihydroimidazo[1,2-c]quinazoline] |  | 0.14 | 2.22 | 0.45 | 0.12 |  | 100 | particularly favorable | 
CCN(CC)C(=O)Cn1c(=O)n2cc(-c3ccc(C)cc3)nc2c2ccccc21 [Example 18, 2-(p-methylphenyl)-6-N,N-diethylaminocarbonylmethyl-5-oxo-5,6-dihydroimidazo[1,2-c]quinazoline] |  | 0.21 | 8.37 | 0.94 | 0.07 |  | 100 |  | 
CCN(CC)C(=O)Cn1c(=O)n2c(C)c(-c3ccccc3)nc2c2ccccc21 [Example 20, 2-phenyl-3-methyl-6--N,N-diethylaminocarbonylmethyl-5-oxo-5,6-dihydroimidazo[1,2-c]quinazoline] |  |  | 3.46 | 0.87 | 0.0086 |  |  |  | 
CCN(CC)C(=O)Cn1c(=O)n2cc(-c3ccc(OC)c(OC)c3)nc2c2ccccc21 [Example 23, 2-(3,4-dimethoxyphenyl)-6-N,N-diethylaminocarbonylmethyl-5-oxo-5,6-dihydroimidazo[1,2-c]quinazoline] |  |  | 0.74 | 0.18 |  |  | > 100 |  | 
CCc1c(-c2ccccc2)nc2c3ccccc3n(CC(=O)N(CC)CC)c(=O)n12 [Example 25, 2-phenyl-3-ethyl-6-N,N-diethylaminocarbonylmethyl-5-oxo-5,6-dihydroimidazo[1,2-c]quinazoline] |  | 0.032 | > 100 | 370 | 0.05 |  |  |  | 
CCCN(CCC)C(=O)Cn1c(=O)n2cc(-c3ccccc3)nc2c2ccccc21 [Example 28, 2-phenyl-6-N,N-dipropylaminocarbonylmethyl-5-oxo-5,6-dihydroimidazo[1,2-c]quinazoline] |  |  | > 100 | 196 |  |  | 100 | particularly favorable | 
Cn1c(=O)n2cc(-c3ccccc3)nc2c2ccccc21 [Example 29, 2-phenyl-6-methyl--5-oxo-5,6-dihydroimidazo[1,2-c]quinazoline] |  | > 100 | > 100 | > 100 | > 100 |  |  |  | 
CCN(CC)C(=O)Cn1c(=O)n2cc(-c3ccccc3Cl)nc2c2ccccc21 [Example 30, 2-(o-chlorophenyl)-6-N,N-diethylaminocarbonylmethyl-5-oxo-5,6-dihydroimidazo[1,2-c]quinazoline] |  | 0.28 | 73.9 | 10.4 | 0.034 |  |  |  | 
CCN(CC)C(=O)Cn1c(=O)n2cc(-c3ccccc3)nc2c2c(Cl)cccc21 [Example 31, 2-phenyl-6-N,N-diethylaminocarbonylmethyl-10-chloro-5-oxo-5,6-dihydroimidazo[1,2-c]quinazoline] |  | 1.4 |  |  | 2.8 |  | 100 |  | 
CN1C(=O)CN=C(c2ccc(Cl)cc2)c2cc(Cl)ccc21 [Example R05-4864, reference compound] | 9.38 |  |  |  |  |  |  |  | 1.48
CCC(C)N(C)C(=O)c1cc2ccccc2c(-c2ccccc2Cl)n1 (stereo not drawn) [PK 11195, reference compound] | 9.13 |  |  |  |  |  |  |  | 1.66
